According to ChEMBL document CHEMBL1201862, “PubChem BioAssay data set” (2004):
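A five-concentration, 48-hour dose response in 96-well plates underlies each endpoint, interpolated linearly between surrounding concentrations. At the GI50, growth is halved.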 Active and inactive are the calls of the source. No stated cut-off is given here; in the data, active = GI50 up to about 1.1 µM and inactive = higher.

What was measured:
Test in all cases: growth of human tumour cells (NCI), 48 h
[1] = test system: RPMI-8226
[2] = test system: Malme-3M
[3] = test system: SK-MEL-5
[4] = test system: CAKI-1
[5] = test system: MCF7
[6] = test system: HOP-92
[7] = test system: SNB-19
[8] = test system: UO-31
[9] = test system: SR
[10] = test system: OVCAR-3
[11] = test system: NCI-H226
[12] = test system: UACC-62
[13] = test system: T47D
[14] = test system: MDA-N
[15] = test system: HCT-15
[16] = test system: TK-10
[17] = test system: MDA-MB-231
[18] = test system: MOLT-4
[19] = test system: HCT-116
[20] = test system: EKVX
[21] = test system: PC-3
[22] = test system: SW-620
[23] = test system: SNB-75
[24] = test system: HT-29
[25] = test system: LOX IMVI
[26] = test system: U-251
[27] = test system: NCI/ADR-RES
[28] = test system: OVCAR-4
[29] = test system: KM12
[30] = test system: A549
[31] = test system: BT-549
[32] = test system: HCC 2998
[33] = test system: 786-0
[34] = test system: CCRF-CEM
[35] = test system: OVCAR-5
[36] = test system: OVCAR-8
[37] = test system: SK-OV-3
[38] = test system: ACHN
[39] = test system: HOP-62
[40] = test system: NCI-H522
[41] = test system: IGROV-1
[42] = test system: RXF 393
[43] = test system: K562
[44] = test system: SF-539
[45] = test system: COLO 205
[46] = test system: DU-145
[47] = test system: UACC-257
[48] = test system: NCI-H460
[49] = test system: SN12C
[50] = test system: M14
[51] = test system: HL-60
[52] = test system: MDA-MB-435
[53] = test system: SK-MEL-28
[54] = test system: SK-MEL-2
[55] = test system: SF-295
[56] = test system: NCI-H23
[57] = test system: Hs-578T
[58] = test system: SF-268
[59] = test system: A498

Measured: GI50

CCN(CCCN(CC)C(=O)Nc1ccccc1)C(=O)Nc1ccccc1
> 100 µM: [15]
inactive: [1] > 100 µM | [2] 66.1 µM | [3] > 100 µM | [4] > 100 µM | [5] > 100 µM | [6] > 100 µM | [7] > 100 µM | [8] > 100 µM | [9] > 100 µM | [10] > 100 µM | [11] > 100 µM | [12] > 100 µM | [13] > 100 µM | [14] > 100 µM | [16] > 100 µM | [17] > 100 µM | [18] > 100 µM | [19] > 100 µM | [20] > 100 µM | [21] > 100 µM | [22] > 100 µM | [23] > 100 µM | [24] > 100 µM | [25] > 100 µM | [26] > 100 µM | [27] > 100 µM | [28] > 100 µM | [29] > 100 µM | [30] > 100 µM | [31] > 100 µM | [32] > 100 µM | [33] > 100 µM | [34] > 100 µM | [35] > 100 µM | [36] > 100 µM | [37] > 100 µM | [38] > 100 µM | [39] > 100 µM | [40] > 100 µM | [41] > 100 µM | [42] > 100 µM | [43] > 100 µM | [44] > 100 µM | [45] > 100 µM | [46] > 100 µM | [47] > 100 µM | [48] > 100 µM | [49] > 100 µM | [50] > 100 µM | [51] > 100 µM | [52] > 100 µM | [53] > 100 µM | [54] > 100 µM | [55] > 100 µM | [56] > 100 µM

C/C(=C1\N=C(c2ccccc2)OC1=O)c1ccccc1
> 100 µM: [15]
inactive: [1] > 100 µM | [2] > 100 µM | [3] > 100 µM | [4] > 100 µM | [5] > 100 µM | [6] > 100 µM | [7] > 100 µM | [8] > 100 µM | [9] > 100 µM | [10] > 100 µM | [11] > 100 µM | [12] > 100 µM | [57] > 100 µM | [13] > 100 µM | [16] > 100 µM | [18] > 100 µM | [19] > 100 µM | [20] > 100 µM | [21] > 100 µM | [58] > 100 µM | [22] > 100 µM | [24] > 100 µM | [25] > 100 µM | [26] > 100 µM | [28] > 100 µM | [29] > 100 µM | [30] > 100 µM | [32] > 100 µM | [34] > 100 µM | [35] > 100 µM | [36] 70.8 µM | [37] > 100 µM | [38] > 100 µM | [39] > 100 µM | [40] > 100 µM | [41] > 100 µM | [43] > 100 µM | [44] > 100 µM | [59] > 100 µM | [45] > 100 µM | [46] > 100 µM | [47] > 100 µM | [48] > 100 µM | [50] > 100 µM | [51] > 100 µM | [52] > 100 µM | [53] > 100 µM | [54] > 100 µM | [55] > 100 µM | [56] > 100 µM
active: [23] 0.611 µM | [31] 0.61 µM
